Patent US20250186410A1, “DUAL INHIBITORS OF TRYPTOPHAN DIOXYGENASES (IDO1 AND TDO) AND THEIR USE IN THERAPY” (ANTIDO THERAPEUTICS INTERNATIONAL SÀRL, priority 2022, published 2025)

Legend:
[1] = tested on: LLC (cisplatin-sensitive cell tumours); experiment: Tumor growth in syngeneic mouse model, LLC allografts; format: in vivo; settings: epacadostat 200 mg/kg P.O. daily
Procedure: (§1) LLC or LLC-CR (1×10^6) cells were subcutaneously injected into the flank of C57B6/J male and female mice (5 mice per group, age 6-8 weeks, Jackson laboratory) and allowed to grow for 3 days (average tumor size=50 mm^3) before being treated with the selective IDO1 inhibitor epacadostat at 200 mg/kg daily or with AT-0174 at 170 mg/kg daily (a dual inhibitor of IDO1 and TDO enzymes). Both compounds were administered via oral gavage (P.O.) and diluted with 95% water+5% methylcellulose (0.5%) and stored at −20° C. Compound was prepared every 5 days. Methyl cellulose (95+5%) was used as control (“Veh”). Tumor growth was evaluated every 2 days by measuring tumor volume with calipers according to the following formula: tumor volume=width^2×length×0.5. At the end of the study, mice were sacrificed and the blood, tumor, and lymph nodes were collected and processed for KYN and tryptophan (TRP) measurement and immune cell assessment respectively.
In this example, LLC-CR from the Lewis lung mouse cell line (LLC; see methods) was used to determine, in vivo, the effect of IDO1 or dual IDO1/TDO inhibition on tumor growth. Mice were inoculated with either LLC or LLC-CR and treated with epacadostat (200 mg/kg P.O. 1/day) or AT-0174 (170 mg/kg P.O. 1/day).

[2] = tested on: immune cells in LLC-CR tumors; experiment: Flow cytometry immune cell analysis, LLC-CR tumors; format: in vivo, mouse; settings: AT-0174 170 mg/kg, epacadostat 200 mg/kg P.O. daily
Procedure: as §1
Tumors or lymph nodes were collected from mice and homogenized using syringe plungers. Mesh filters (40 μM) were placed on 15 mL or 50 mL tubes and the tissue suspensions were filtered. Cell filtrates were spun down at 1000 g. Red blood cell lysis buffer (1% […]) was added into the cell pellets and resuspended. Cell pellets were washed using PBS and isolated. Tumors were isolated using EasySep™ Mouse TIL (CD45) Positive Selection Kit (Stemcell Technologies). To detect regulatory T cells (T-regs) or natural killer cells (NKs), EasySep™ Mouse CD25 Regulatory T Cell Positive Selection Kit and EasySep™ Mouse CD49b Positive Selection Kit were used, respectively. Isolated cells were stained according to manufacturer's instructions. Cells were also fixed with 2% paraformaldehyde and analysis was done using the CytoFLEX Flow Cytometer (Beckman). All flow antibodies were obtained from Biolegend.

[3] = tested on: kynurenine (KYN) and tryptophan (TRP) levels in mouse serum; experiment: KYN and TRP measurements, LLC-bearing mice; format: in vivo; settings: AT-0174 170 mg/kg, epacadostat 200 mg/kg P.O. daily
Procedure: as §1
(§2) Blood samples were collected via cardiac puncture from mice at the time of sacrifice and the Biochrom 30 amino acid analyzer (using ion exchange chromatography) was used to analyze free amino acids in samples. Briefly, 200 μL of serum extract and equal volume of 30% v/v deproteinization agent (sulfosalicylic acid) were mixed and vortexed for 10 s. Samples were then incubated at 55° C. for 20 min, spin down at 2500 g for 20 min at 4° C. Supernatant were collected, filtered through a 0.22 μm filter, and injected into the Biochrom 30. Values were reported compared to normal ranges in controls. Samples used in ion exchange chromatography are separated in an analytical fashion with an ion exchange column and buffers of increasing pH and ionic strength. After post-column derivatization with Ninhydrin, and colorimetric intensity recordings at 570 nm and 440 nm, the amino acids separated by chromatography were detected. Amino acid concentration was calculated by comparing the peak area of a particular amino acid to the peak area of an internal standard-AEC of known concentration, and then multiplying by its specific response factor from calibration.

[4] = tested on: kynurenine (KYN) and tryptophan (TRP) levels in mouse serum; experiment: KYN and TRP measurements, LLC-CR-bearing mice; format: in vivo; settings: AT-0174 170 mg/kg, epacadostat 200 mg/kg P.O. daily
Procedure: as §1, §2

[5] = tested on: LLC-CR (cisplatin-resistant cell tumours); experiment: Tumor growth in syngeneic mouse model, LLC-CR allografts; format: in vivo; settings: for tumor weight: LLC-CR allograft mice, FIG. 2C; for tumor volume, Mean: LLC-CR tumours, AT-0174 170 mg/kg, epacadostat 200 mg/kg P.O. daily; for Tumor growth: cisplatin-resistant tumor group, FIG. 2B
Procedure: Cisplatin resistant mouse cell lines (LLC-CR) were derived from LLC (mouse Lewis lung cancer cells (epidermoid carcinoma), ATCC) through treatment with increasing doses of cisplatin intermittently. LLC-CR clones were maintained in half GI50 dosage concentration. […] The cultures were observed daily and allowed to grow until they reached an initial cell density. […] After the cells recovered from cisplatin toxicity, they were treated again with increasing dosage of cisplatin for 24 h. These cells are seeded at 500-1000 cells per dish and cultured for 5-7 days. Clones are selected and expanded as well as tested for cisplatin sensitivity. Similar processes of exposure are carried out for a third and fourth time to generate higher resistant clones. At the end, the resistance clones (LLC-CR) were maintained in media completed with 1 μg/ml (half GI50 dosage) of cisplatin. […] Both compounds were administered via oral gavage (P.O.) and diluted with 95% water+5% methylcellulose (0.5%) and stored at −20° C. Compound was prepared every 5 days. Methyl cellulose (95+5%) was used as control (“Veh”). […] At the end of the study, mice were sacrificed and the blood, tumor, and lymph nodes were collected and processed for KYN and tryptophan (TRP) measurement and immune cell assessment respectively. In this example, LLC-CR from the Lewis lung mouse cell line (LLC; see methods) was used to determine, in vivo, the effect of IDO1 or dual IDO1/TDO inhibition on tumor growth. Mice were inoculated with either LLC or LLC-CR and treated with epacadostat (200 mg/kg P.O. 1/day) or AT-0174 (170 mg/kg P.O. 1/day).

SMILES: Nc1noc2nc(Cl)c(F)cc12 [Compound 66, 6-Chloro-5-fluoroisoxazolo[5,4-b]pyridin-3-amine]
- tumor volume, Mean ([1]; day 1, AT-0174 170 mg/kg): 58.0 mm^3
- tumor volume, Mean ([1]; day 2, AT-0174 170 mg/kg): 79.0 mm^3
- tumor volume, Mean ([1]; day 3, AT-0174 170 mg/kg): 110.0 mm^3
- tumor volume, Mean ([1]; day 4, AT-0174 170 mg/kg): 125.0 mm^3
- tumor volume, Mean ([1]; day 5, AT-0174 170 mg/kg): 115.2 mm^3
- tumor volume, Mean ([1]; day 6, AT-0174 170 mg/kg): 124.0 mm^3
- tumor volume, Mean ([1]; day 7, AT-0174 170 mg/kg): 135.0 mm^3
- tumor volume, Mean ([1]; day 8, AT-0174 170 mg/kg): 140.6 mm^3
- tumor volume, Mean ([1]; day 9, AT-0174 170 mg/kg): 171.0 mm^3
- tumor volume, Mean ([1]; day 10, AT-0174 170 mg/kg): 230.0 mm^3
- tumor volume, Mean ([1]; day 11, AT-0174 170 mg/kg): 340.0 mm^3
- tumor volume, Mean ([1]; day 12, AT-0174 170 mg/kg): 430.0 mm^3
- tumor volume, Mean ([1]; day 13, AT-0174 170 mg/kg): 571.8 mm^3
- tumor volume, Mean ([1]; day 14, AT-0174 170 mg/kg): 645.0 mm^3
- tumor volume, Mean ([1]; day 15, AT-0174 170 mg/kg): 675.0 mm^3
- CD3^+ CD8^+ T-Effector [2]: 8.13 ± 0.94
- CD3^+ CD49^+ NKG2D^+ NK Cells [2]: 7.44 ± 0.62
- CD4^+ CD25^+ FoxP3^+ T-regs [2]: 5.75 ± 1.53
- KYN/TRP Ratio [3]: 1.11 ± 0.17
- Kynurenine [3]: 64.2 ± 9.3
- Tyrptophan [3]: 59.2 ± 4.4
- KYN/TRP Ratio [4]: 1.18 ± 0.31
- Kynurenine [4]: 50 ± 9.7
- Tyrptophan [4]: 85.8 ± 8.3
- tumor weight [5]: Significant reduction in tumor weight
- tumor volume, Mean ([5]; day 1): 57.0 mm^3
- tumor volume, Mean ([5]; day 2): 93.0 mm^3
- tumor volume, Mean ([5]; day 3): 102.0 mm^3
- tumor volume, Mean ([5]; day 4): 115.0 mm^3
- tumor volume, Mean ([5]; day 5): 135.0 mm^3
- tumor volume, Mean ([5]; day 6): 153.0 mm^3
- tumor volume, Mean ([5]; day 7): 185.0 mm^3
- tumor volume, Mean ([5]; day 8): 198.0 mm^3
- tumor volume, Mean ([5]; day 9): 213.0 mm^3
- tumor volume, Mean ([5]; day 10): 228.0 mm^3
- tumor volume, Mean ([5]; day 11): 272.0 mm^3
- tumor volume, Mean ([5]; day 12): 280.0 mm^3
- tumor volume, Mean ([5]; day 13): 310.0 mm^3
- tumor volume, Mean ([5]; day 14): 345.0 mm^3
- tumor volume, Mean ([5]; day 15): 360.0 mm^3
- Tumor growth [5]: significantly reduced

SMILES: NS(=O)(=O)NCCNc1nonc1C(=NO)Nc1ccc(F)c(Br)c1 [Epacadostat, epacadostat, reference compound]
- tumor volume, Mean ([1]; day 1, AT-0174 170 mg/kg): 47.0 mm^3
- tumor volume, Mean ([1]; day 2, AT-0174 170 mg/kg): 108.0 mm^3
- tumor volume, Mean ([1]; day 3, AT-0174 170 mg/kg): 110.0 mm^3
- tumor volume, Mean ([1]; day 4, AT-0174 170 mg/kg): 124.0 mm^3
- tumor volume, Mean ([1]; day 5, AT-0174 170 mg/kg): 137.0 mm^3
- tumor volume, Mean ([1]; day 6, AT-0174 170 mg/kg): 151.0 mm^3
- tumor volume, Mean ([1]; day 7, AT-0174 170 mg/kg): 208.0 mm^3
- tumor volume, Mean ([1]; day 8, AT-0174 170 mg/kg): 290.0 mm^3
- tumor volume, Mean ([1]; day 9, AT-0174 170 mg/kg): 325.0 mm^3
- tumor volume, Mean ([1]; day 10, AT-0174 170 mg/kg): 409.0 mm^3
- tumor volume, Mean ([1]; day 11, AT-0174 170 mg/kg): 563.0 mm^3
- tumor volume, Mean ([1]; day 12, AT-0174 170 mg/kg): 625.0 mm^3
- tumor volume, Mean ([1]; day 13, AT-0174 170 mg/kg): 725.0 mm^3
- tumor volume, Mean ([1]; day 14, AT-0174 170 mg/kg): 785.0 mm^3
- tumor volume, Mean ([1]; day 15, AT-0174 170 mg/kg): 910.0 mm^3
- CD3^+ CD8^+ T-Effector [2]: 4.06 ± 0.63
- CD3^+ CD49^+ NKG2D^+ NK Cells [2]: 2.38 ± 0.42
- CD4^+ CD25^+ FoxP3^+ T-regs [2]: 12.60 ± 0.94
- KYN/TRP Ratio [3]: 1.35 ± 0.23
- Kynurenine [3]: 74.6 ± 7.7
- Tyrptophan [3]: 58.6 ± 5.6
- KYN/TRP Ratio [4]: 2.01 ± 0.32
- Kynurenine [4]: 81.8 ± 11.9
- Tyrptophan [4]: 43 ± 5.8
- tumor weight [5]: reduction of the total tumor weight
- tumor volume, Mean ([5]; day 1): 57.0 mm^3
- tumor volume, Mean ([5]; day 2): 89.0 mm^3
- tumor volume, Mean ([5]; day 3): 96.0 mm^3
- tumor volume, Mean ([5]; day 4): 126.0 mm^3
- tumor volume, Mean ([5]; day 5): 137.0 mm^3
- tumor volume, Mean ([5]; day 6): 158.0 mm^3
- tumor volume, Mean ([5]; day 7): 212.0 mm^3
- tumor volume, Mean ([5]; day 8): 291.0 mm^3
- tumor volume, Mean ([5]; day 9): 340.0 mm^3
- tumor volume, Mean ([5]; day 10): 390.0 mm^3
- tumor volume, Mean ([5]; day 11): 430.0 mm^3
- tumor volume, Mean ([5]; day 12): 490.0 mm^3
- tumor volume, Mean ([5]; day 13): 511.0 mm^3
- tumor volume, Mean ([5]; day 15): 565.0 mm^3
- Tumor growth [5]: significantly reduced
